In assay [1] the target is T1, human FLT4 (Homo sapiens, UniProt P35916).
T1 construct: a construct expressing the human FLT4 (789-1207) with an amino terminal GST tag; host or cells: Sf9 insect cells (baculovirus)
Description: FLT4 kinase assay (DELFIA enzyme inhibition). In kind it is biochemical. As to conditions: read-out: FLT4 IC50. The procedure, abridged:
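GST-tagged human FLT4 (789-1207) from Sf9 cells phosphorylates a biotinylated MET (Tyr1253)-derived peptide for 30 min at room temperature, stopped with EDTA. Phosphopeptide is captured on Neutravidin and detected with Eu-labelled anti-phosphotyrosine antibody by time-resolved fluorescence; IC50 from % inhibition curves.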

Assay [2] has as its target T2, human FLT3 (Homo sapiens, UniProt P36888).
T2 construct: a construct expressing the human FLT3 (564-993) with an amino terminal GST tag; host or cells: Sf9 insect cells (baculovirus)
T2 sequence (P36888 564-993): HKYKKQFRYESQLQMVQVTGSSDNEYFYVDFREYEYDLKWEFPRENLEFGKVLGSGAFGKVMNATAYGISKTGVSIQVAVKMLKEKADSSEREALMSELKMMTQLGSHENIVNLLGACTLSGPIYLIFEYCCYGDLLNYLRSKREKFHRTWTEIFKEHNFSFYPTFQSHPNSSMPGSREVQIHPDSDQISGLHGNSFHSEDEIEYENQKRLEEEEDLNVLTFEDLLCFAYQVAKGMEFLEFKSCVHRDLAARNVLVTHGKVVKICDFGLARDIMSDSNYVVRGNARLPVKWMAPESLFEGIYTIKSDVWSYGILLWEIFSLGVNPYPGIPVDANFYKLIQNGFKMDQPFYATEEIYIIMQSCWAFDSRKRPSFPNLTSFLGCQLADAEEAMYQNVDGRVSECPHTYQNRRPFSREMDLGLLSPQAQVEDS
Description: FLT3 kinase assay (DELFIA enzyme inhibition). In kind it is biochemical. The procedure, abridged: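 GST-tagged human FLT3 (564-993), expressed in sf9 cells, phosphorylated a biotinylated Gastrin Precursor (Tyr 87)-derived peptide for 30 min at room temperature before EDTA stop. The captured peptide was detected by Eu-labelled anti-phosphotyrosine DELFIA time-resolved fluorescence. IC50 was derived from % inhibition curves.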

Assay [3] addresses T3, human Aurora A (Homo sapiens, UniProt O14965).
T3 construct: Histidine tag (N); host or cells: Sf9 insect cells (baculovirus)
T3 sequence (O14965 1-403): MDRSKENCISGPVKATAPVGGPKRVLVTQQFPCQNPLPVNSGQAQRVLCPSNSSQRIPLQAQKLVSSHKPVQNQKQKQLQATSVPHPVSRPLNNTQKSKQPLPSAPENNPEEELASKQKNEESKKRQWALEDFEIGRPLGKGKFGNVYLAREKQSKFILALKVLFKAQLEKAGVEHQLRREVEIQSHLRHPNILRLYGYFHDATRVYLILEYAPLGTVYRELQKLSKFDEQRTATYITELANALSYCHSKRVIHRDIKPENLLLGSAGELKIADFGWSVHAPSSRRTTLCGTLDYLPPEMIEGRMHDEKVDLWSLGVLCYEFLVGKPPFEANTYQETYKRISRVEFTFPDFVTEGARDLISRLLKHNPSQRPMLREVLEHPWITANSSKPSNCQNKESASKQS
As to the kind of experiment: Aurora A kinase assay (DELFIA enzyme inhibition). In kind it is biochemical. The conditions noted are these: read-out: Aurora A IC50. The procedure, abridged: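 DELFIA read-out (time-resolved Eu fluorescence, 620 nm emission) after Neutravidin capture of biotinylated peptide substrate and antibody detection. Reaction: Ni-agarose-purified Aurora A, 30 min at room temperature, stopped with 100 mM EDTA.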

Assay [4] has as its system A549 human lung carcinoma cells. As to the kind of experiment: Anti-proliferative activity, Alamar Blue assay, A549. In kind it is cell-based. The conditions noted are these: A549, 72 h, read-out: cell growth IC50. As for the experimental part:
(§1) The anti-proliferative activities of compounds of the invention are determined by measuring the ability of the compounds to inhibition of cell growth in a number of cell lines. Inhibition of cell growth is measured using the Alamar Blue assay (Nociari et al., Journal of Immunological Methods (1998) 213, 157-167). The method is based on the ability of viable cells to reduce resazurin to its fluorescent product resorufin. For each proliferation assay cells are plated onto 96 well plates and allowed to recover for 16 hours prior to the addition of inhibitor compounds for a further 72 hours. At the end of the incubation period 10% (v/v) Alamar Blue is added and incubated for a further 6 hours prior to determination of fluorescent product at Excitation 535 nm and Emission 590 nm. In the case of the non-proliferating cell assay cells are maintained at confluence for 96 hour prior to the addition of inhibitor compounds for a further 72 hours. The number of viable cells is determined by Alamar Blue assay as before. All cell lines are obtained from ECACC (European Collection of cell Cultures).

Assay [5] deals with HCT116 cells. As to the kind of experiment: Anti-proliferative activity, Alamar Blue assay, HCT116. In kind it is cell-based. The conditions noted are these: Homo sapiens, HCT-116, 72 hours, read-out: cell proliferation IC50. As for the experimental part: as §1

The structures appear in SMILES notation. pIC50: −log10 of the molar value.

T1 sequence (P35916 789-1207): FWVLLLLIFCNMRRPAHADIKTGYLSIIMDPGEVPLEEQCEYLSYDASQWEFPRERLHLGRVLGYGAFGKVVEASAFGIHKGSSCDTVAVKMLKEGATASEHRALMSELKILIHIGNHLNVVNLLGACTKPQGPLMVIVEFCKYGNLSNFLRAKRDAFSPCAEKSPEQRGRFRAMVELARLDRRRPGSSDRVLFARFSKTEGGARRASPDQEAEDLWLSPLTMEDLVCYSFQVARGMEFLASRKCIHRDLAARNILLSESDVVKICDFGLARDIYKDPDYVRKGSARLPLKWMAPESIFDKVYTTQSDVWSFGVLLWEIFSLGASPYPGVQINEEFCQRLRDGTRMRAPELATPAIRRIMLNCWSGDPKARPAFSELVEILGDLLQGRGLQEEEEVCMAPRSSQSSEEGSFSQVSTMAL

Consider `CN(C)S(=O)(=O)c1ccc(Nc2oc(-c3c(F)cccc3F)nc2C(N)=O)cc1` [Example Q-26, 2-(2,6-difluorophenyl)-5-(4-(N′,N′-dimethylsulfonamide)phenylamino)oxazole-4-carboxamide], for which the pIC50 in assay [1], in assay [2], in assay [3] and in assay [4] was greater than 5.00 each time.

Turning to `NC(=O)c1nc(-c2c(F)cccc2F)oc1Nc1ccc(S(=O)(=O)N2CCCCC2)cc1` [Example Q-28, 2-(2,6-difluorophenyl)-5-(4-(piperidin-1-ylsulfonyl)phenylamino)oxazole-4-carboxamide], the pIC50 in assay [1] is greater than 5.00; in assay [2], greater than 4.00; in assay [3], greater than 4.00; in assay [4], greater than 5.00.

Regarding `NC(=O)c1nc(-c2c(F)cccc2F)oc1Nc1ccc(OCCN2CCOCC2)cc1` [Example Q-8, 2-(2,6-difluorophenyl)-5-(4-(2-morpholinoethoxy)phenylamino)oxazole-4-carboxamide], the pIC50 in assay [1], in assay [2], in assay [3] and in assay [5] was greater than 5.00 throughout.

Consider `COc1ccccc1Nc1nc(C(N)=O)c(-c2ccc(N3CCNCC3)cc2)o1` [Example R-11, 2-(2-methoxyphenylamino)-5-(4-(piperazin-1-yl)phenyl)oxazole-4-carboxamide], for which the pIC50 in assay [1], in assay [2], in assay [3] and in assay [5] was greater than 5.00 each time.

Regarding `CC(=O)N1CCN(c2ccc(Nc3oc(-c4c(F)cccc4F)nc3C(N)=O)cc2)CC1` [Example Q-9, 5-(4-(4-acetylpiperazin-1-yl)phenylamino)-2-(2,6-difluorophenyl)oxazole-4-carboxamide], the pIC50 in assay [1], in assay [2], in assay [3] and in assay [5] was greater than 5.00 in each case.

In the case of `CS(=O)(=O)c1ccc(Nc2oc(-c3c(F)cccc3F)nc2C(N)=O)cc1` [Example Q-3, 2-(2,6-difluorophenyl)-5-(4-(methylsulfonyl)phenylamino)oxazole-4-carboxamide], the pIC50 in assay [1], in assay [2], in assay [3], in assay [5] and in assay [4] was greater than 5.00 each time.

For the compound `CN1CCN(C(=O)c2ccc(Nc3oc(-c4c(F)cccc4F)nc3C(N)=O)cc2)CC1` [Example Q-14, 2-(2,6-difluorophenyl)-5-(4-(4-methylpiperazine-1-carbonyl)phenylamino) oxazole-4-carboxamide], the pIC50 in assay [1], in assay [2], in assay [3], in assay [5] and in assay [4] was greater than 5.00 in each case.

Turning to `NC(=O)c1nc(-c2cccc3[nH]ccc23)oc1-c1ccc(N2CCNCC2)cc1` [Example M-12, 2-(1H-indol-4-yl)-5-(4-(piperazin-1-yl)phenyl)oxazole-4-carboxamide], the pIC50 in assay [1], in assay [2], in assay [3], in assay [5] and in assay [4] was greater than 5.00 in each case.

Consider `NC(=O)c1nc(Nc2c(F)cccc2F)oc1-c1ccc(N2CCNCC2)cc1` [Example R-13, 2-(2,6-difluorophenylamino)-5-(4-(piperazin-1-yl)phenyl)oxazole-4-carboxamide], for which the pIC50 in assay [1], in assay [2], in assay [3], in assay [5] and in assay [4] was greater than 5.00 in each case.

In the case of `NC(=O)c1nc(-c2c(F)cccc2F)oc1Nc1ccc(N2CCNCC2)cc1` [Example Q-11, 2-(2,6-difluorophenyl)-5-(4-(piperazin-1-yl)phenylamino)oxazole-4-carboxamide], the pIC50 in assay [1], in assay [2], in assay [3], in assay [5] and in assay [4] was greater than 5.00 in each case.

For `CN1CCN(c2ccc(Nc3oc(-c4c(F)cccc4F)nc3C(N)=O)cc2)CC1` [Example Q-7, 2-(2,6-difluorophenyl)-5-(4-(4-methylpiperazin-1-yl)phenylamino)oxazole-4-carboxamide], the pIC50 in assay [1], in assay [2], in assay [3] and in assay [5] was greater than 5.00 each time.

Take `NC(=O)c1nc(-c2c(F)cccc2F)oc1-c1ccc(OCCN2CCOCC2)cc1` [Example F-13, 2-(2,6-difluorophenyl)-5-(4-(2-morpholinoethoxy)phenyl)oxazole-4-carboxamide]: the pIC50 in assay [1], in assay [2], in assay [3] and in assay [5] was greater than 5.00 each time.

As to `NCC1CN(C(=O)c2ccc(Nc3oc(-c4c(F)cccc4F)nc3C(N)=O)cc2)CCO1` (stereo not drawn) [Example U-23, 5-(4-(2-(aminomethyl)morpholine-4-carbonyl)phenylamino)-2-(2,6-difluorophenyl) oxazole-4-carboxamide], the pIC50 in assay [1], in assay [2] and in assay [3] was greater than 5.00 in each case.

In the case of `CNC(=O)N1CCN(c2ccc(Nc3oc(-c4c(F)cccc4F)nc3C(N)=O)cc2)CC1` [Example J-3, 4-(4-(4-carbamoyl-2-(2,6-difluorophenyl)oxazol-5-ylamino)phenyl)-N-methylpiperazine-1-carboxamide], the pIC50 in assay [1], in assay [2], in assay [3] and in assay [5] was greater than 5.00 in each case.

As to `NC(=O)c1nc(-c2c(F)cccc2F)oc1-c1ccc(OCCN2CCC[C@@H]2CO)cc1` [Example S-6, (R)-2-(2,6-difluorophenyl)-5-(4-(2-(2-(hydroxymethyl)pyrrolidin-1-yl)ethoxy)phenyl)oxazole-4-carboxamide], the pIC50 in assay [1], in assay [2] and in assay [3] was greater than 5.00 each time.

As to `CNC(=O)N1CCN(c2ccc(-c3oc(-c4c(F)cccc4F)nc3C(N)=O)cn2)CC1` [Example J-2, 4-(5-(4-carbamoyl-2-(2,6-difluorophenyl)oxazol-5-yl)pyridin-2-yl)-N-methylpiperazine-1-carboxamide], the pIC50 in assay [1], in assay [2] and in assay [3] was greater than 5.00 each time.

As to `NC(=O)c1nc(-c2c(F)cccc2F)oc1Nc1ccc(C(=O)N2CCCC(O)C2)cc1` (stereo not drawn) [Example U-15, 2-(2,6-difluorophenyl)-5-(4-(3-hydroxypiperidine-1-carbonyl)phenylamino)oxazole-4-carboxamide], the pIC50 in assay [1], in assay [2] and in assay [3] was greater than 5.00 throughout.

Consider `NC(=O)c1nc(-c2c(F)cccc2F)oc1Nc1ccc(C(=O)N2CCNCC2)cc1` [Example Q-22, 2-(2,6-difluorophenyl)-5-(4-(piperazine-1-carbonyl)phenylamino)oxazole-4-carboxamide], for which the pIC50 in assay [1], in assay [2] and in assay [3] was greater than 5.00 throughout.
